Source: patent US20220340635A1, “FUSION PROTEIN FOR TREATMENT OF METABOLIC DISEASE” (ZHEJIANG DOER BIOLOGICS CORPORATION, priority 2019, published 2022)
No end group written: not given here.

What was measured:
[1] = in vivo; cited from earlier work
[2] = molecular target: Recombinant DPP-IV enzyme (Homo sapiens, UniProt P27487); assay: DPP-IV enzyme resistance (GCGR bioactivity after DPP-IV treatment); type: in vitro ADME; details: 5 μM protein, 10 nM recombinant DPP-IV, 37° C., 24 hours; GCGR bioactivity after/before treatment
Chain of Recombinant DPP-IV enzyme (P27487 whole entry, species assumed, the tested form may be a part): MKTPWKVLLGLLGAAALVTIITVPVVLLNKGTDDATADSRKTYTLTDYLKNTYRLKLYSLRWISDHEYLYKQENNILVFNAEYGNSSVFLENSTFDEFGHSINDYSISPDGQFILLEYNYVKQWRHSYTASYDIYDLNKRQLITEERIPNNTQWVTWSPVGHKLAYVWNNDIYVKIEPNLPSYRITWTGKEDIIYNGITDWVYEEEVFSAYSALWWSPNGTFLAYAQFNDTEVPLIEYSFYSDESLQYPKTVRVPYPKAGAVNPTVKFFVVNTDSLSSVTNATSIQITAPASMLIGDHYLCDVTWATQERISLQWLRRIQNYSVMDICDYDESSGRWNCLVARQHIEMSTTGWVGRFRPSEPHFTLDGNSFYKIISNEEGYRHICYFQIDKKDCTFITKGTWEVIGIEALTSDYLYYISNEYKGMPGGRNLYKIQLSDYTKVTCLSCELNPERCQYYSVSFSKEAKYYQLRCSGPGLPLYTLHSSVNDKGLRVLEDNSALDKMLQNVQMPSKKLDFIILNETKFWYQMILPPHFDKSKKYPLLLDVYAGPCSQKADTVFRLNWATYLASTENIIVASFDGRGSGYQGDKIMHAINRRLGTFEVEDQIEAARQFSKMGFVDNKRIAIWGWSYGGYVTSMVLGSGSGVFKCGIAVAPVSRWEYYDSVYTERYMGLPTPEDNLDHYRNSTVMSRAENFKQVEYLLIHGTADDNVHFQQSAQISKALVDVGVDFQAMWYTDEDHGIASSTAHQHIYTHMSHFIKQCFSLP
Protocol: The purified fusion protein was dissolved in 10 mM of HEPES buffer (containing 0.05 mg/ml BSA) to a final concentration of 5 μM. Recombinant DPP-IV enzyme (final concentration of 10 nM) was added and incubated at 37° C. for 24 hours before detection of GCGR bioactivity. Activity retention rate=(activity after DPP-IV enzyme treatment/activity before DPP-IV enzyme treatment)×100%.

Taspoglutide
Anti-drug antibody positive rate [1]: 49%

H-D-Ser-QGTFTSDYSKYLDSQAAQDFVQWLMNGGPSSGAPPPS (not fully specified (N-terminus)) [GDSerGS, control]
Activity preservation rate (%) [2]: 99.2%
